“Also recorded” adds a separate entry of the source.
Legend:
Assay type in all cases: cell-based
MDA-MB-468 cells [1] = assay: Immunoblot analysis of MDA-MB-468 cell extracts; settings: for ER stress response / UPR activation / HER3 levels / Akt phosphorylation / PARP cleavage (cell death): 2-DOG 4 mM; for ER stress response / UPR activation / Akt phosphorylation / PARP cleavage (cell death): DTDO 20 μM; for ATF4 and CHOP expression: compared with 20 μM RBF3
Description: (§1) The following cell lines were purchased from American Type Culture Collection (ATCC) (Manassas, Va.): MDA-MB-468, BT474, T47D, SKBR3, MDA-MB-231, HCC1954, HEK 293, TSC2-Ang1, and BxPC3. The HCI-012 cell line was derived from the HCI-012 Patient-Derived Xenograft tumor line provided by Dr. Alana Welm using conditional cell reprogramming. Wild type and eIF2α[S51A] homozygous knock-in Mouse Embryo Fibroblasts (MEFs) were described previously.
(§2) Cells were grown in Dulbecco's modified Eagle's medium (GE Healthcare Life Sciences Logan, Utah) supplemented with 10% fetal bovine serum (10% FBS-DMEM) in a humidified 37° C. incubator with 5% CO2. Cell lysates were prepared using a buffer containing 1% Triton X100, 20 mM HEPES (pH 7.4), 1 mM EDTA, 1 mM EGTA, 0.1% 3-mercaptoethanol, 5% glycerol, 10 nM microcystin, 200 μM Na3VO4 and 40 mM Na2H2P2O7 as described previously.
(§3) Immunoblot analysis was carried out using primary antibodies purchased from Santa Cruz Biotechnology (Dallas, Tex.) [Actin, sc-1616-R; ERK, sc-93; JNK, sc-572; P-JNK, sc-6254; Src, sc-18; EGFR, sc-03; GRP78, sc-13539; Phosphotyrosine (PY99), sc-7020], Cell Signaling Technology (Beverly, Mass.) [Akt, #4691; P-Akt[T308], #13038; P-Akt[S473], #9271; ATF4, #11815; CHOP, #2895; P-Src[Y527], #2105; EGFR, #4267; HER2, #2165; HER3, #4754; Calnexin, #2679; #13024; P-Erk, #9101; IRE1α, #3294; XBP1s, #12782; PARP, #9532; PDI, #3501; PERK, #5683; S6, #2212; P-S6, #2211; P-Src[Y416], #6943], BD Transduction Laboratories (San Jose, Calif.) [PAI-1, 612024], Millipore (Temecula, Calif.) [anti-phosphotyrosine (4G10), 05-321], and Sigma-Aldrich (St. Louis, Mo.) [anti-FLAG (M2), F3165]. To quantify immunoblot results, bands were analyzed using ImageJ (imagej.nih.gov/ij/) and each band was normalized to the corresponding Actin loading control band.

[2] = test system: XBP1 mRNA splicing in MDA-MB-468 cells; assay: RT-PCR of XBP1 mRNA splicing; settings: 24 hours; RBF3 20 μM, DTT 2 mM
Description: RNA was isolated from MDA-MB-468 and BT474 cells with Trizol Reagent (Invitrogen) according to the manufacturer's instructions, and reverse transcribed to cDNA under the following conditions: 25° C. for 10 min, 42° C. for 30 min, and 95° C. for 5 min. PCR was performed using XBP1 and β-Actin primers. The primers used to amplify XBP1 are as follows: Forward: […] and Reverse: […]. The primers used to amplify (3-Actin are as follows: Forward: […] and Reverse: […]. Reactions were performed as follows: 96° C. for 5 min followed by 35 cycles of 95° C. for 45 sec, 60° C. for 1 min, and 72° C. for 30 sec. Reaction products were visualized on 3% agarose gels.

BT474 cells [3] = assay: Immunoblot analysis of BT474 cell extracts
Description: as §1, §2, §3

[4] = test system: MDA-MB-468 or BT474 cells; assay: Immunoblot analysis, MDA-MB-468 or BT474 cells (text does not separate the lines); settings: for DDA activation of the ER stress response when protein synthesis is inhibited: 20 μM RBF3 with 20 μM CHX or 5 μg/ml Puromycin
Description: as §2, §3

[5] = test system: Mouse Embryo Fibroblasts (MEFs); assay: Immunoblot analysis of Mouse Embryo Fibroblasts; settings: 24 hours, thapsigargin 400 nM, tunicamycin 500 ng/ml; for Akt phosphorylation, wild type MEFs / ER stress response / UPR, wild type MEFs / PARP cleavage, wild type MEFs: RBF3 20 μM, DTT 5 mM
Description: as §1, §2, §3

HCC1954 cells = assay: Immunoblot analysis of HCC1954 cells; settings: 24 hour; 20 μM RBF3, 20 μM Lapatinib
T47D cells = assay: Immunoblot analysis of T47D stable cell lines (vector, EGFR or HER2 overexpressing); settings: 20 μM NSC624205, 24 hours
Description: Recombinant retroviruses were prepared and used to produce stable cell lines as described previously. Retroviral vectors encoding EGFR (plasmid 11011, [68]) and HER2 (plasmid 40978 [69]) were from Addgene (Cambridge, Mass.).
as §2, with “previously. […]” for “previously.”

MDA-MB-468 cells [6] = assay: MTT cell viability assay, MDA-MB-468; settings: 72 hours, increasing concentrations
Description: (§4) Cell viability was evaluated using MTT (3-(4,5-dimethylthiazol-2-yl)-2,5-diphenyltetrazolium bromide) assays carried out based on the manufacturer's instructions (kit CGD1, Sigma-Aldrich, St. Louis, Mo.)

BT474 cells [7] = assay: MTT cell viability assay, BT474; settings: 72 hours
Description: as §4

[8] = RBF3 20 μM, thapsigargin 400 nM, DTT 2 mM
[9] = thapsigargin 400 nM, tunicamycin 500 ng/ml, DTT 2 mM
[10] = 24 hours, RBF3 20 μM, 2-DOG 4 mM
[11] = 24 hours, RBF3 20 μM, thapsigargin 400 nM
[12] = 2.5 μM Gefitinib or Lapatinib, 24 hours
[13] = increasing concentration, 24 hours (FIG. 5B)

## O[C@H](CS)[C@H](O)CS (racemic) [DTT, dithiothreitol]
MDA-MB-468 cells [1]; 24 hours, DTT 2 mM
  ER stress response / UPR activation: only weakly activated
MDA-MB-468 cells [1]; 24 hours, RBF3 20 μM, DTT 2 mM
  GRP78 expression: only weakly induces
  HER3 levels: less so; also recorded: induces downregulation
  Akt phosphorylation: suppresses
  PARP cleavage (cell death): only weakly induces
MDA-MB-468 cells [1]; 24 hours, RBF3 20 μM, thapsigargin 400 nM, tunicamycin 500 ng/ml, DTT 2 mM
  EGFR levels: induces downregulation
MDA-MB-468 cells [1]; [8]
  XBP1s expression: does not upregulate
MDA-MB-468 cells [1]; [9]
  ATF4 and CHOP expression: does not upregulate
[2]
  IRE1-dependent XBP1 mRNA processing / splicing: does not upregulate
BT474 cells [3]; 24 hours, RBF3 20 μM
  EGFR and HER2 expression: only does so in the MDA-MB-468 line
  XBP1s and GRP78 expression (ER stress markers): increased
BT474 cells [3]; [10]
  Akt phosphorylation: decreased
BT474 cells [3]; [11]
  ATF4 and CHOP expression: little upregulation
[4]
  concentrations that activate UPR / induce a similar level of ER stress: millimolar concentrations
[5]
  Akt phosphorylation, wild type MEFs: weakly suppressed
  ER stress response / UPR, wild type MEFs: did not induce
  PARP cleavage, wild type MEFs: induced PARP cleavage

## NCCOB(c1ccccc1)c1ccccc1 [2-APB, 2-aminoethoxydiphenyl borate]
[4]
  RBF3-induced downregulation of HER3, Akt dephosphorylation, or PARP cleavage, with 2-APB: did not alter
  RBF3-mediated GRP78 upregulation, with 2-APB: reduced

## O=CC[C@@H](O)[C@H](O)[C@H](O)CO [2-DOG, 2-deoxyglucose]
MDA-MB-468 cells [1]; 24 hours, DTT 2 mM
  ER stress response / UPR activation: strongly activated UPR
MDA-MB-468 cells [1]; 24 hours, RBF3 20 μM, DTT 2 mM
  HER3 levels: did not cause downregulation
  Akt phosphorylation: did not cause downregulation
  PARP cleavage (cell death): did not increase cell death
BT474 cells [3]; 24 hours, 2-DOG 4 mM
  HER3 expression: did not cause downregulation
  PARP cleavage: did not increase cell death
  UPR activation: strongly activated UPR
BT474 cells [3]; [10]
  Akt phosphorylation: did not cause downregulation

## C[C@@H]1C[C@@H]([C@H](O)CC2CC(=O)NC(=O)C2)C(=O)[C@@H](C)C1 [CHX, cycloheximide]
MDA-MB-468 cells [1]; 2-16 hrs
  RBF3-mediated UPR on co-treatment with CHX: rapidly and persistently blocked
BT474 cells [3]; 24 hour, 20 μM RBF3, 20 μM CHX
  HER2 expression, RBF3 with CHX: partially restored
[4]; 8 hours, 20 μM RBF3, 20 μM CHX
  DDA-mediated downregulation of EGFR or HER3, with CHX: did not overcome
  RBF3-induced PARP cleavage and Akt dephosphorylation, with CHX: partly overcame
[4]; 8 hours
  DDA activation of the ER stress response when protein synthesis is inhibited: reduced
[4]; 24 hour treatment
  CHX blockade of RBF3-induced PARP cleavage: less apparent

## COc1cc2ncnc(Nc3ccc(F)c(Cl)c3)c2cc1OCCCN1CCOCC1 [Gefitinib]
MDA-MB-468 cells [1]; [12]
  CHOP expression, combination with RBF3: cooperated with RBF3 to upregulate
  concentration of RBF3 required to downregulate HER3 levels and Akt phosphorylation, on co-treatment: lowered

## CS(=O)(=O)CCNCc1ccc(-c2ccc3ncnc(Nc4ccc(OCc5cccc(F)c5)c(Cl)c4)c3c2)o1 [Lapatinib]
MDA-MB-468 cells [1]; [12]
  concentration of RBF3 required to downregulate HER3 levels and Akt phosphorylation, on co-treatment: lowered
HCC1954 cells
  CHOP expression, Lapatinib with RBF3: cooperated with RBF3 to upregulate
  RBF3-induced UPR with respect to GRP78, XBP1s, or ATF4 levels, with Lapatinib: only weakly potentiated

## O=S(O)CCCCSSCCCCSSCCCCS(=O)O [NSC624205]
T47D cells
  HER3 expression in EGFR or HER2 overexpressing T47D cells: reduced HER3 expression to very low levels; also recorded: more sensitive to downregulation

## O=C(CCSSCCCCS(=O)[O-])OCC(COC(=O)CCSSCCCCS(=O)[O-])(COC(=O)CCSSCCCCS(=O)[O-])COC(=O)CCSSCCCCS(=O)[O-].[Na+].[Na+].[Na+].[Na+] (centres unmarked) [PEMP-DDA]
MDA-MB-468 cells [1]; [13]
  Akt phosphorylation, comparison of bi-, tri- and tetravalent DDAs: more than RBF3 or Bn-DDA
  HER3 levels, comparison of bi-, tri- and tetravalent DDAs: more than RBF3 or Bn-DDA
MDA-MB-468 cells [6]
  cell viability (MTT): reduced cell viability in a concentration-dependent manner
BT474 cells [3]; same drug concentrations, 24 hours (FIG. 6B)
  HER2 expression, quantified, compared with RBF3: significantly more than RBF3
BT474 cells [3]; same drug concentrations, 24 hours (FIG. 6C)
  PARP cleavage (cPARP), quantified, compared with RBF3: significantly more than RBF3
BT474 cells [7]
  cell viability (MTT): reduced BT474 cell viability more than RBF3

## COc1ccc(C[C@H](N)C(=O)N[C@H]2[C@@H](O)[C@H](n3cnc4c(N(C)C)ncnc43)O[C@@H]2CO)cc1 [Puromycin, puromycin]
[4]; 8 hours
  DDA activation of the ER stress response when protein synthesis is inhibited: reduced

## C/C=C(/C)C(=O)O[C@H]1C(C)=C2[C@H]([C@@H]1OC(=O)CCCCCCC)[C@@](C)(OC(C)=O)C[C@H](OC(=O)CCC)[C@@]1(O)[C@H]2OC(=O)[C@@]1(C)O [thapsigargin]
MDA-MB-468 cells [1]; [8]
  XBP1s expression: more strongly than RBF3
MDA-MB-468 cells [1]; [9]
  ATF4 and CHOP expression: more effectively than RBF3
MDA-MB-468 cells [1]; thapsigargin 400 nM, tunicamycin 500 ng/ml, DTT 2 mM, listed as Thapsigargin
  ATF4 and CHOP expression: more strongly than RBF3
BT474 cells [3]; [11]
  ATF4 and CHOP expression: strongly upregulated
BT474 cells [3]; 24 hours, thapsigargin 400 nM
  PERK electrophoretic mobility: more strongly decreased
[5]
  Akt phosphorylation, wild type MEFs: markedly suppressed
  ER stress response / UPR, wild type MEFs: induced a robust UPR
  PARP cleavage, wild type MEFs: strongly upregulated
  CHOP, ATF4, and GRP78 upregulation in eIF2α[S51A] knock-in MEFs: significantly blunted
  PARP cleavage or XBP1s upregulation, effect of S51A eIF2a mutation: did not affect

## tunicamycin
MDA-MB-468 cells [1]; [9]
  ATF4 and CHOP expression: more effectively than RBF3
[5]
  Akt phosphorylation, wild type MEFs: markedly suppressed
  ER stress response / UPR, wild type MEFs: induced a robust UPR
  PARP cleavage, wild type MEFs: strongly upregulated
  CHOP, ATF4, and GRP78 upregulation in eIF2α[S51A] knock-in MEFs: significantly blunted
  PARP cleavage or XBP1s upregulation, effect of S51A eIF2a mutation: did not affect

— US10813904B2, “Small molecule anticancer agents” (University of Florida Research Foundation, Incorporated, priority 2017, dated 2020)
